# Data published in PubChem BioAssay (NCI).
# Several values for one entry are separate records, joined by “and”; a condition that tells them apart may be missing. Equal entries are not always repeated.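 Values below derive from 48-hour exposures of cells grown in 96-well plates, with endpoints linearly interpolated between the two concentrations bracketing the appropriate inhibition level. Here, GI50 denotes the concentration required for 50% inhibition of growth. Definition used: TGI = concentration required for complete inhibition of growth.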
# Tests used:
# Assay in all cases: DTP human tumour cell line panel, 48 h
# HCC-2998 colon = system: HCC-2998 colon
# SR leukemia = system: SR leukemia
# KM12 colon = system: KM12 colon
# COLO 205 colon = system: COLO 205 colon
# TK-10 renal = system: TK-10 renal
# U251 CNS = system: U251 CNS
# BT-549 breast = system: BT-549 breast
# NCI/ADR-RES ovarian = system: NCI/ADR-RES ovarian
# NCI-H460 lung = system: NCI-H460 lung
# HT29 colon = system: HT29 colon
SMILES,GI50 (HCC-2998 colon) [µM],TGI (HCC-2998 colon) [µM],GI50 (SR leukemia),TGI (SR leukemia) [µM],GI50 (KM12 colon),TGI (KM12 colon) [µM],GI50 (COLO 205 colon) [µM],TGI (COLO 205 colon) [µM],GI50 (TK-10 renal) [µM],TGI (TK-10 renal) [µM],GI50 (U251 CNS),TGI (U251 CNS) [µM],GI50 (BT-549 breast) [µM],TGI (BT-549 breast),GI50 (NCI/ADR-RES ovarian) [µM],TGI (NCI/ADR-RES ovarian) [µM],GI50 (NCI-H460 lung),TGI (NCI-H460 lung) [µM],TGI (HT29 colon) [µM],GI50 (HT29 colon) [µM]
COc1ccc(C2=CSc3cc(Cl)c(C)cc3S(=O)(=O)N2C(C)=O)cc1,27.1,69.5,14.6 µM,> 100,23.1 µM,92.2,38.5,> 100,17.8,46.7,21.2 µM,55.8,29.9,> 100 µM,26.8,66.7,29 µM,99.5,–,–
CCN(CC)CC(C(=O)Nc1c(C)cccc1C)/C(C)=N\NC(=O)C[N+](C)(C)C (stereo not drawn),–,> 100,–,> 100,–,> 100,–,> 100,–,> 100,–,> 100,–,–,–,–,–,> 100,> 100,–
Cn1ccnc1C(=O)/C=C/c1ccc(CC(=O)Nc2ccc(Br)cc2)cc1,2.95,5.9,0.575 µM,> 16.7,2.66 µM,5.51,3.56,8.28,6.21,> 16.7,1.97 µM,4.51,2.93,6.43 µM,5.08,> 16.7,3 µM,8.51,9.96,4.05
NC(CSC(c1ccccc1)(c1ccccc1)c1ccc2c(c1)OCO2)C(=O)O (stereo not drawn),0.35,3.49,0.285 µM,0.868,0.605 µM,> 100,0.325,1.15,10.6,> 100,0.405 µM,> 74.5,0.559,75.9 µM,4.12,26.8,0.375 µM,> 40,> 44.5,1.81
O=C(O)C(Cc1ccccc1)N1C(=O)N/C(=C\c2ccc(F)cc2)C1=O (stereo not drawn),–,> 100,–,> 100,–,> 100,–,> 100,–,> 100,–,> 100,–,–,–,–,–,> 100,> 100,–
Cc1cc(=O)n2[nH]c(-c3ccc(C(C)(C)C)cc3)cc2n1,8.59,> 100,8.03 µM,> 100,7.04 µM,53.9,11.3,> 100,3.5,61.8,3.24 µM,64.5,17.4,> 100 µM,15.9,> 100,3.03 µM,38,> 100,5.12
COc1ccc(/C=C\c2cc(OC)c3c(c2)OCO3)c(O)c1O,–,> 58,–,> 41.5,–,21.4,–,45.1,–,> 86.6,–,19.3,–,–,–,–,–,22.2,47.2,–
O=[S@@]1Nc2ccc(Br)cc2S1,–,–,–,> 100,–,> 100,–,–,–,> 100,–,> 100,–,–,–,–,–,–,> 100,–
COc1c2ccoc2c(/C=C/C=O)c2oc(-c3ccccc3)cc(=O)c12,16.1,42,–,–,16.5 µM,43.5,27.7,> 100,–,–,3.06 µM,12.9,2.88,13.1 µM,3.01,> 100,11.3 µM,61.4,> 100,25.1
CCOC(=O)COc1cccc2c1C(=O)CCO2,–,> 100,–,–,–,> 100,–,> 100,–,> 100,–,> 100,–,–,–,–,–,> 100,> 100,–
CN(CC(=O)O)S(=O)(=O)c1ccc2ccccc2c1,–,> 100,–,–,–,> 100,–,> 100,–,> 100,–,> 100,–,–,–,–,–,> 100,> 100,–
CC(C)c1ccc(C(C)C(=O)N(CC2=C(C(C)c3ccccn3)c3ccccc3C2)C(C)C)cc1 (stereo not drawn),4.52,39.1,2.67 µM,9.58,3.36 µM,12.2,1.75,3.23,4.81,> 100,2.85 µM,13.6,–,–,2.67,19.2,2.62 µM,8.35,3.77,1.6
CCNC1C2(CCCCC2)NC(=O)C12CCCCC2 (stereo not drawn),–,> 100,–,–,–,> 100,–,–,–,> 100,–,> 100,–,–,–,–,–,> 100,> 100,–
CC1=C(C(=O)Nc2ccc(F)c(Cl)c2)C(c2ccc(Cl)cc2)NC(=O)N1 (stereo not drawn),14.6,27.7,–,–,24.2 µM,52.1,37.5,> 100,7.4,25.4,16.7 µM,33.2,14.6,32.6 µM,25.4,75.2,17.5 µM,37.3,27.8,14.3
CC(=O)OC1COC(n2c(=S)n(-c3ccc(C)cc3)c(=O)c3ccccc32)C(OC(C)=O)C1OC(C)=O (stereo not drawn),–,> 100,–,–,–,> 100,–,> 100,–,–,–,> 100,–,–,–,–,–,> 100,> 100,–
COC(=O)[C@@H](C)C[C@H](Cc1ccc(F)cc1)NC(=O)c1csc([C@@H](C[C@H](C(C)C)N(C)C(=O)[C@@H](NC(=O)[C@H]2CCCCN2C)C(C)C)OC(C)=O)n1,–,> 16.7,0.000437 µM and 0.00167 µM,> 16.7,0.000953 µM and 0.00636 µM,> 16.7,0.00641,0.0651,–,–,0.00151 µM and 0.00914 µM,> 16.7,–,0.0568 µM and 0.261 µM,–,> 16.7,0.000678 µM and 0.0063 µM,> 16.7,> 16.7,–
N#CC(C#N)=c1ccc(=C2NCC3CCCN23)cc1 (stereo not drawn),–,> 100,–,> 100,–,> 100,–,> 100,–,> 100,–,> 100,–,–,–,–,–,> 100,> 100,–
C=CCc1cc(OC)c2c(c1)C(O)CC(c1ccc(OC)c(OC)c1)O2 (stereo not drawn),–,> 100,–,> 100,–,> 100,–,> 100,–,> 100,–,> 100,–,–,–,–,–,> 100,> 100,–
Cc1cc(=O)[nH]c(NNC(C#N)c2cccc(O)c2)n1 (stereo not drawn),–,–,–,> 100,–,> 100,–,> 100,–,> 100,–,> 100,–,–,–,–,–,> 100,> 100,–
O=C1NC2(CCCCC2)C2CCCCC(O)C12 (stereo not drawn),–,> 100,–,> 100,–,> 100,–,> 100,–,> 100,–,> 100,–,–,–,–,–,> 100,> 100,–
CC(=O)NC1=C(NCC(C)(C)C)C(=O)c2ccccc2C1=O,–,> 100,–,> 100,–,> 100,–,> 100,–,> 100,–,> 100,–,–,–,–,–,> 100,> 100,–
CSc1ccc(/C=C2\CN(C)C/C(=C\c3ccc(SC)cc3)C2=O)cc1,–,> 100,–,41.4,–,44.8,–,61.6,–,> 100,–,33.1,–,–,–,–,–,> 100,67,–
COc1ccc2nc3cc(Cl)ccc3c(Sc3ccccc3[N+](=O)[O-])c2c1,–,> 100,–,> 100,–,> 100,–,37.7,–,> 100,–,> 100,–,–,–,–,–,> 100,–,–

SMILES,GI50 (HCC-2998 colon) [µM],TGI (HCC-2998 colon) [µM],GI50 (SR leukemia),TGI (SR leukemia) [µM],GI50 (KM12 colon),TGI (KM12 colon) [µM],GI50 (COLO 205 colon) [µM],TGI (COLO 205 colon) [µM],GI50 (TK-10 renal) [µM],TGI (TK-10 renal) [µM],GI50 (U251 CNS),TGI (U251 CNS) [µM],GI50 (BT-549 breast) [µM],TGI (BT-549 breast),GI50 (NCI/ADR-RES ovarian) [µM],TGI (NCI/ADR-RES ovarian) [µM],GI50 (NCI-H460 lung),TGI (NCI-H460 lung) [µM],TGI (HT29 colon) [µM],GI50 (HT29 colon) [µM]
COc1cccc(NC(=O)CC(=O)n2nc(C)c(N=Nc3ccccc3)c2C)c1,–,> 100,–,> 100,–,> 100,–,> 100,–,> 100,–,> 100,–,–,–,–,–,–,> 100,–
CC1CN1P1(N2CC2C)=NP(N2CC2C)(N2CC2C)=NP(N2CC2C)(N2CC2C)=N1 (stereo not drawn),–,> 50,–,> 50,–,–,–,> 50,–,> 50,–,> 50,–,–,–,–,–,> 50,> 50,–
O=C(CSC(=S)N1CCCCC1)Nc1nc2c(s1)CCCC2,–,> 100,–,> 100,–,> 100,–,> 100,–,> 100,–,> 100,–,–,–,–,–,> 100,> 100,–
NC(CCc1nc(-c2ccc(Cl)cc2)cs1)C(=O)O (stereo not drawn),–,> 100,–,> 100,–,> 100,–,> 100,–,> 100,–,> 100,–,–,–,–,–,> 100,> 100,–
CCOC(=O)C(Sc1ccccc1)c1c(OC)cc(=O)oc1/C=[N+](/[O-])c1ccc(N(C)C)cc1 (stereo not drawn),–,58.7,–,–,–,47.4,–,45.4,–,89.5,–,60.7,–,–,–,–,–,82.5,31.4,–
CSCCCN(CCCSC)CCCSC,–,> 100,–,58.8,–,> 100,–,> 100,–,–,–,> 100,–,> 100 µM,–,> 100,–,> 100,> 100,–
CSc1ccccc1C#C/C=C\C#Cc1ccccc1N1CCCC1=O,–,> 33.8,–,–,–,> 17.6,–,> 12.6,> 24.6,> 50,> 11 µM,> 50,–,> 45.4 µM,–,> 19.9,–,> 50,> 50,> 10.4
CNC(=O)c1cc(Oc2ccc3nc(NC(=O)Nc4ccc(Cl)c(C(F)(F)F)c4)sc3c2)ccn1,–,–,0.412 µM,9.1,3.41 µM,> 100,–,–,2.29,4.62,–,–,2.64,9.73 µM,–,–,–,–,–,–
CC(C)=CCCc1c(C)ccc2c1C(=O)C(=O)C(C(C)C)=C2,–,> 22,–,14.9,–,> 22,–,> 22,–,8.81,–,> 22,–,–,–,–,–,> 22,> 22,–
FC(F)(F)c1ccc(C2SCc3nc4ccccc4n32)cc1 (stereo not drawn),–,> 100,–,> 100,–,> 100,–,> 100,–,> 100,–,> 100,–,–,–,–,–,–,> 100,–
CC1(C)OC(=O)C(=Cc2ccc(O)cc2)C(=O)O1,–,> 100,–,> 100,–,> 100,–,> 100,–,> 100,–,> 100,–,–,–,–,–,> 100,> 100,–
COc1ccc(-c2cc(=O)c3ccc(O)cc3o2)c(OC)c1OC,–,> 100,–,–,–,> 100,–,> 100,–,> 100,–,–,–,–,–,–,–,–,> 100,–
O=c1cc(-c2cccc(O)c2)[nH]c2cc3c(cc12)OCO3,–,> 100,–,–,–,> 100,–,9.32,–,> 100,–,> 36.5,–,> 100 µM,–,4,–,> 100,> 100,–
CCOC(=O)c1ncn2c1[nH]c(=S)c1ccccc12,–,> 100,–,–,–,> 100,–,> 100,–,> 100,–,> 100,–,–,–,–,–,> 100,> 100,–
C/C(CCn1[nH]c(=O)ccc1=O)=N\O,–,> 100,–,> 100,–,> 100,–,–,–,> 100,–,–,–,–,–,–,–,> 100,> 100,–
COc1ccc(NC(=O)c2cc(OC)cc(OC)c2)cc1,–,> 100,–,> 100,–,> 100,–,> 42.8,–,> 100,–,> 61.3,–,–,–,–,–,> 100,> 100,–
O=C(N/C(=C\c1cc(Cl)ccc1Cl)c1nc2[nH]c(=S)[nH]c(=O)c2[nH]1)c1ccccc1,–,30.7,–,> 100,–,73.6,–,> 100,–,> 100,–,> 76.1,–,–,–,–,–,> 100,39.6,–
COc1ccc2c(c1)C1(C=N2)CCN(C(C)=O)CC1,–,> 100,–,–,–,> 100,–,> 100,–,> 100,–,> 100,–,–,–,–,–,> 100,> 100,–
CC1(C)COC(c2ccc(C(F)(F)F)cc2C(O)c2ccc3ccccc3c2)=N1 (stereo not drawn),> 100,> 100,–,> 10,> 100 µM,> 100,> 100,> 100,> 100,> 100,> 100 µM,> 100,–,–,–,–,–,> 10,> 10,–
COc1cc2cnc3c4cc(OC(C)C)c(OC)cc4ccc3c2cc1OC,–,> 100,–,–,–,> 100,–,> 100,–,> 100,–,> 100,–,–,–,–,–,> 100,> 100,–
O=C(O)CCSC(=O)Nc1cccc(F)c1,–,> 100,–,> 100,–,> 100,–,> 100,–,> 100,–,> 100,–,–,–,–,–,> 100,> 100,–
CCOC(=O)C1=C(C)CC2C(=O)OC(=O)C2C1(C)C (stereo not drawn),–,> 100,–,> 100,–,> 100,–,> 100,–,> 100,–,> 100,–,–,–,–,–,> 100,> 100,–
